Activity calls are given as the source filed them. No rule for the calls is given here.
System: P. yoelii liver stage in HepG2-A16-CD81EGFP, imaging
Assay: Plasmodium liver-stage growth inhibition, dose response, imaging, Malaria Box, P. yoelii, HepG2-A16-CD81EGFP (AID 602156);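 also: infected cells exposed to compound for 48 hours before fixation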

Structure (SMILES) | IC50
CCC(=O)NC(c1ccccc1Cl)c1cc(Cl)c2cccnc2c1O (stereo not drawn) | 1010 nM
Cc1cc(Nc2cccc(F)c2)nc(NCc2ccccc2)n1 | 1110 nM
Fc1ccc(Nc2nc(NCc3ccco3)c3ccccc3n2)cc1 | 74.9 nM
CC1(C)C2CCC(C2)C1(C)NC(=S)NN=Cc1ccccn1 (stereo not drawn) | 17.4 nM
Cc1ccc(S(=O)(=O)Nc2nc3n(n2)C(c2ccccc2)C=C(c2ccccc2)N3)cc1 (stereo not drawn) | > 10000 nM (inactive)
CCCCOc1ccc(N(C(C)=O)C2=C(N3CCOCC3)C(=O)c3ccccc3C2=O)cc1 | 1790 nM
COc1ccc2nc(C)cc(Nc3ccc(Oc4ccc(Cl)c5ccccc45)c(Cl)c3)c2c1 | 267 nM
c1ccc(-c2ccc(-c3ccccn3)nc2)nc1 | 39.4 nM
O=c1c2ccccc2[nH]c2ccc(F)cc12 | 223 nM
COc1cccc(C(=O)NC(c2ccccc2OC)c2cc(Cl)c3cccnc3c2O)c1 (stereo not drawn) | 544 nM
C=CC[N+]1(CC#Cc2cccc3ccccc23)CCCCC1 | 908 nM
O=C(Nc1ccc(Oc2cccc(Oc3ccc(NC(=O)c4ccc(Br)o4)cc3)c2)cc1)c1ccc(Br)o1 | 433 nM
O=C1C2=C(Nc3ccccc3SC2c2ccco2)c2ccccc21 (stereo not drawn) | 113 nM
CN(C)c1ccc(-c2n(C)c3ccccc3[n+]2C)cc1 | 175 nM
Cc1nc2ccccc2c(=O)n1-c1ccc([N+](=O)[O-])cc1 | > 10000 nM (inactive)
OC(CNC1CCCCC1)Cn1c2ccccc2c2ccccc21 (stereo not drawn) | 3920 nM
CC[C@H]1CN2CCc3cc(OC)c(OC)cc3[C@@H]2C[C@@H]1C[C@H]1NCCc2cc(OC)c(OC)cc21 | 7.49 nM
Nc1nonc1-n1nnc(C(=O)NN=Cc2ccc(F)c(Br)c2)c1-c1ccc([N+](=O)[O-])cc1 | > 10000 nM (inactive)
O=C(Nc1ccc2oc(-c3cccc4ccccc34)nc2c1)c1ccc([N+](=O)[O-])o1 | 72.5 nM
Fc1ccccc1Nc1nc(NCc2ccccc2)c2ccccc2n1 | 690 nM
COc1ccc(C2CC(=O)C3=C(C2)NC(C)=C(C(=O)OC(C)C)C3c2ccccc2OC)cc1OC (stereo not drawn) | > 10000 nM (inactive)
O=C(c1cc2nc(-c3ccccc3)cc(C(F)(F)F)n2n1)N1CCN(Cc2ccccc2)CC1 | > 10000 nM (inactive)
COc1ccc2nc(C)cc(Nc3ccc(Cl)c(Cl)c3)c2c1 | 438 nM
CCN(CC)CCCNc1nc2cc(OC)c(OC)cc2c2nc(-c3ccccc3)nn12 | 327 nM
Cc1cccc(C)c1N(CC(=O)NCc1ccco1)S(C)(=O)=O | > 10000 nM (inactive)
CCOC(=O)C1=C(C)NC2=C(C(=O)C(C(=O)OCC)C(c3ccccc3OC)C2)C1c1cc(OC)c(OC)c(OC)c1 (stereo not drawn) | 509 nM

Structure (SMILES) | IC50
CC(=O)N(C)C1=C(N2CCCC2)C(=O)c2ccccc2C1=O | 4950 nM
O=C(c1cccc(Cl)c1)N1CCN(c2ccc([N+](=O)[O-])c(NC3CC3)c2)CC1 | 3200 nM
COc1ccc(C2CC(=O)C3=C(C2)NC(C)=C(C(=O)OC2CCCC2)C3c2cccc(C)c2)cc1OC (stereo not drawn) | 779 nM
COc1ccc(NC(=O)COc2ccccc2C(C)C)c(OC)c1 | > 10000 nM (inactive)
O=C(Nc1ccc(C(F)(F)F)cc1)c1ccc(NCCCN2CCCCCC2)c([N+](=O)[O-])c1 | 450 nM
O=C1CC(c2ccccc2)CC2=C1C(c1ccccc1[N+](=O)[O-])Nc1ccccc1N2 (stereo not drawn) | > 10000 nM (inactive)
COc1ccc(C2Sc3ccccc3NC3=C2C(=O)c2ccccc23)cc1 (stereo not drawn) | 706 nM
CCCCCc1ccc(OCCCC[n+]2cccc(C)c2)c(CCCCC)c1 | 34.6 nM
CC(=O)N1c2ccc(C)cc2C(C)(c2ccccc2)CC1(C)C (stereo not drawn) | 1250 nM
Cc1ccc2cc(C)c(Nc3ccc(Cl)cc3)nc2c1 | 148 nM
CCCCc1c(C)[nH]c2ccc(Br)cc2c1=O | 64.7 nM
COc1cccc(CNC(=O)C2CNCC2c2ccc(C(F)(F)F)cc2)c1 (stereo not drawn) | 857 nM
Cc1cc(C)nc(N=C(N)Nc2cccc(O)c2)n1 | 152 nM
CCOc1ccc(CN(C(=O)COc2ccc(Cl)cc2)C(C)CCCN(CC)CC)cc1 (stereo not drawn) | 20.4 nM
Cc1cccc(-c2cc3nc(C)c(C)c(=O)n3[nH]2)c1 | 1100 nM
Cn1cnnc1SCC(=O)Nc1ccccc1C(F)(F)F | > 10000 nM (inactive)
Cc1oc2c(c1C(=O)NC1CCS(=O)(=O)C1)C(=O)c1ccccc1C2=O (stereo not drawn) | 2.29 nM
CCCN[P+](CC(C)C)(NCCC)NCCC | 281 nM
CC(=O)N(C1=C(N(C)C)C(=O)c2ccccc2C1=O)c1ccc(F)cc1 | 57.3 nM
CC(=O)N(C)C1=C(N2CCOCC2)C(=O)c2ccccc2C1=O | 229 nM
C=CCN1C(=Cc2cc[n+](C)cc2)Sc2ccccc21 | 13.2 nM
CCN1C(=O)N(CC)C(NNC(N)=S)C1NNC(N)=S (stereo not drawn) | 68.6 nM
CC(C)(C)c1ccc(Oc2ccc(N3C(=O)C4CC=CCC4C3=O)cc2)cc1 (stereo not drawn) | > 10000 nM (inactive)
CC1(C)N=C(N)N=C(N)N1c1ccc(Cl)cc1 | 2.56 nM
Oc1cccc(Nc2nc(NCC3CCCO3)c3ccccc3n2)c1 (stereo not drawn) | 1040 nM
Cc1[nH]c2ccccc2c(=O)c1CC=C(Cl)Cl | 130 nM

Structure (SMILES) | IC50
CCNC(=O)C1CCN(c2cccc3c2C(=O)N(C2CCCCCCC2)C3=O)CC1 | 269 nM
Cc1nc([P+](c2ccccc2)(c2ccccc2)c2ccccc2)c(SCc2ccccc2)o1 | 33.5 nM
CC1(C)N=C(N)N=C(N)N1c1ccccc1 | 100 nM
COc1ccc2nc(SCC(=O)Nc3cccc(NC(=O)CSc4nc5ccc(OC)cc5[nH]4)n3)[nH]c2c1 | > 9290 nM (inactive)
CCN(c1ccccc1)S(=O)(=O)c1ccc(F)c(C(=O)Nc2c(C)cccc2C)c1 | > 10000 nM (inactive)
Cc1ccc(NC(=O)C2C3C=CC4(O3)C2C(=O)N(CCCN2CCOCC2)C4C(=O)NC2CCCC(C)C2C)cc1Cl (stereo not drawn) | > 10000 nM (inactive)
CCN(CC)c1ccc(NC(=O)c2cccs2)cc1 | 396 nM
CCCCSCC(O)CN1CCCCC1 (stereo not drawn) | > 10000 nM (inactive)
CCc1ccccc1NC(C)=O | > 10000 nM (inactive)
Cc1c(C#N)c2ccccc2n1CC(=O)Nc1ccc(Br)cc1 | > 10000 nM (inactive)
CN1C(=O)N(C)C(NNC(N)=S)C1NNC(N)=S (stereo not drawn) | 15 nM
CCC(C)(C)c1ccc(OCCCC[n+]2cccc(C)c2C)c(C(C)(C)CC)c1 | 45.5 nM
OCCNc1nc(Nc2ccc(F)cc2)nc2ccccc12 | 136 nM
COc1cc(C(=O)N2N=C(c3c(-c4ccccc4)c4cc(Br)ccc4[nH]c3=O)CC2c2cccc([N+](=O)[O-])c2)cc(OC)c1OC (stereo not drawn) | 435 nM
S=C(NN=Cc1ccccn1)NC1CC2CC1C1C=CCC21 (stereo not drawn) | 25.6 nM
CC1CC(N(C(=O)c2ccc(Cl)cc2Cl)c2ccccc2)c2ccccc2N1C(=O)c1ccc(Cl)cc1 (stereo not drawn) | 3640 nM
CC(Oc1ccc(Cl)cc1Cl)c1nc(-c2ccc(NC(=O)c3ccco3)cc2)no1 (stereo not drawn) | 154 nM
CCN(CC)CCN(Cc1cc2ccc(C)cc2[nH]c1=O)C(=S)NC(C)c1ccccc1 (stereo not drawn) | 883 nM
COc1ccc(C2CC(=O)C3=C(C2)NC(C)=C(C(=O)OC(C)C)C3c2cccc(C)c2)cc1OC (stereo not drawn) | 1840 nM
CCCCCc1c(C)c(C#N)c2nc3ccccc3n2c1NCCN(CC)CC | 702 nM
O=C(Nc1ccc(-c2ccc(Cl)cc2)cc1)c1cccs1 | 151 nM
COC(=O)C1=CNC=C(C(=O)OC)C1c1cc(OC)c(OC)c(OC)c1 | > 10000 nM (inactive)
FC(F)(F)c1ccccc1NC(=S)N1CCCN(c2nc3ccc(Cl)cc3s2)CC1 | 1620 nM
O=c1c2ccccc2[nH]c2ccc(I)cc12 | 105 nM
c1ccc(OCCOc2ccc(Nc3ccnc4cc5ccccc5cc34)cc2)cc1 | 67.5 nM
COC(OC)C(C)=NNC(N)=S | 4.93 nM
